In patent US6525057B2, “Sustained release ranolazine formulations” (CV Therapeutics, Inc., priority 1998, dated 2003):
Like-named read-outs stand apart in the source and are kept apart here.

Legend:
[1] = Solubility of ranolazine in aqueous solutions by pH; type: physicochemical
[2] = tested on: patients with chronic stable angina pectoris; assay: Example 4: safety, hemodynamics and tolerability; type: in vivo, human
Method: After each 1 week period, patients returned to the exercise laboratory in the morning, at least 1 hour after a light breakfast, for an ETT. This was designated the trough ETT; the trough ETTs were performed at the same time of day for each patient. After completing the trough ETT, the patient received the next scheduled blinded medication dose from the blister pack used that week. Another ETT was performed 1 hour after the administered dose. This was designated the peak ETT. Blood samples were obtained at trough (approximately 8 hours after dosing) and at peak (1 hour after dosing). Other standard laboratory tests were monitored regularly throughout the study.
Blood pressure (by cuff) and heart rate were monitored before all ETTs, during the ETT, during the last minute of each stage of the test, at onset angina, at the point of maximum exercise, and during recovery (every minute for 4 minutes, then every 5 minutes until values returned to baseline). Heart rates also was monitored continuously and standard 12-lead ECG recordings were done immediately before exercise with the patient standing on the treadmill, at the end of each stage of exercise, at the maximally tolerated exercise load, and at the termination of exercise.

[3] = tested on: patients with chronic stable angina pectoris; assay: Example 4: exercise treadmill test (ETT) at peak and trough, IR regimens; type: in vivo, human; conditions: Peak, all patients, 267 mg tid IR ranolazine .2HCl
Method: In this Example, the safety and anti-ischemic effects of high plasma ranolazine levels in a large group of angina patients was evaluated and the duration of any effects during steady-state dosing with bid and tid regimens was assessed. In this Example, patients with chronic stable angina pectoris who were responsive to conventional antianginal drugs were treated with 3 ranolazine .2HCl dosing regimens: 267 mg tid, 400 mg bid and 400 mg tid IR Formulations of Example 1. Exercise testing parameters and ranolazine free base concentrations were determined at peak and trough plasma levels.
The study involved double-blind, placebo-controlled randomized treatment phase with 4 treatments (placebo, ranolazine .2HCl 400 mg bid, ranolazine .2HCl 267 mg tid, and ranolazine .2HCl 400 mg tid), 4 treatment sequences and 5 double-blind treatment periods in an extended period Latin square design on pre-qualified patients who were responsive to known antianginal therapy and had stable exercise times.
Human patients with chronic stable angina pectoris, of at least 3 months' duration, that had responded to conventional antianginal therapy were considered candidates. […]

healthy male volunteers = assay: Example 8: safety and tolerability of SR 1500 and 2000 mg bid; type: in vivo, human; conditions: for subjects too symptomatic on standing to complete BP measurements: usually 2-6 hours post-dose; for reduction in orthostatic systolic BP: statistically significant
Method: The study was performed with ascending doses of sustained release ranolazine dosage forms. Before and at intervals during and after the dosing period, blood samples were drawn for ranolazine assay and blood pressure, heart rate, ECG and symptoms were monitored throughout. Data summaries were reviewed after each phase before proceeding to the next phase of the study.
Eight subjects, all healthy male volunteers aged between 18 and 40 entered and all completed the study and were available for pharmacokinetic and safety analysis. The subjects were each given doses of the various types of ranolazine free base in the form of sustained release tablets including 500 mg and 750 mg tablets or with matching placebo as necessary (2×750 mg size plus 1×500 mg size) to make unit oral doses of 1500 and 2000 mg.
In each phase: one dose bid for four days with a single dose on Day 5. On day 5 each volunteer underwent a full pharmacokinetic profile including supine and erect blood pressure (BP) and heart rate, ECG data, adverse events, clinical chemistry and hematology results, urinalysis results.
These tests were made using two-sided t-tests with estimates of variability from the ANOVA models. Steady state was also assessed by comparing means for C48h, C72h and C96h using a mixed effects ANOVA model and untransformed and log, transformed data. For hemodynamic parameters, Day 1 pre-dose treatment means and Day 5 data were compared across treatments via two-sided t-tests using estimates of variability from mixed effects ANOVA models. Ninety and 95% confidence intervals were calculated for the treatment comparisons. No adjustments were made for multiple comparisons.

[4] = tested on: patients with stable angina pectoris; conditions: after 4 weeks, 1 hour after medication (peak effect), P=NS vs placebo, cited from earlier work

With `COc1ccccc1OCC(O)CN1CCN(CC(=O)Nc2c(C)cccc2C)CC1` (racemic) [ranolazine, (±)-N-(2,6-dimethylphenyl)-4-[2-hydroxy-3-(2-methoxyphenoxy)-propyl]-1-piperazineacetamide] the “USP Solubility Class” value ([1]; Solution pH 4.81) was “Freely soluble”, the “USP Solubility Class” value ([1]; Solution pH 4.89) was “Soluble” and the “USP Solubility Class” value ([1]; Solution pH 4.90) was “Soluble”. For the same compound, the “USP Solubility Class” value ([1]; Solution pH 5.04) was “Soluble”, the “USP Solubility Class” value ([1]; Solution pH 5.35) was “Sparingly soluble” and the “USP Solubility Class” value ([1]; Solution pH 5.82) was “Slightly soluble”. For the same compound, the “USP Solubility Class” value ([1]; Solution pH 6.46) was “Slightly soluble”, the “USP Solubility Class” value ([1]; Solution pH 6.73) was “Very slightly soluble” and the “USP Solubility Class” value ([1]; Solution pH 7.08) was “Very slightly soluble”. The “USP Solubility Class” value ([1]; Solution pH 7.59 (unbuffered water)) was “Very slightly soluble”, the “USP Solubility Class” value ([1]; Solution pH 7.73) was “Very slightly soluble” and the “USP Solubility Class” value ([1]; Solution pH 12.66) was “Very slightly soluble”. For the same compound, the “ECG intervals or complex morphology” value ([2]; 3 IR dosing regimens) was “no drug-related changes”, the “blood glucose concentrations, lipid values or liver function tests” value ([2]; 3 IR dosing regimens) was “no clinically significant changes” and the tolerability ([2]; over the plasma concentrations achieved in the study) was “well tolerated”. The “blood pressure or heart rate” value ([2]; peak ranolazine plasma concentrations) was “not associated with changes in blood pressure or heart rate”, the “double product versus placebo” value ([2]; peak ranolazine plasma concentrations, any dosing regimen) was “no statistically significant differences” and the “standing or maximum exercise double product versus placebo” value ([2]; trough ranolazine plasma concentrations, per-protocol analysis, 3 dosing regimens) was “no statistically significant differences”. For the same compound, the “Mean time to onset angina” value [3] was 9.40 min, the “subjects too symptomatic on standing to complete BP measurements” value (healthy male volunteers; 1500 mg SR bid) was 3 of 8 and the “subjects too symptomatic on standing to complete BP measurements” value (healthy male volunteers; 2000 mg SR bid) was 2 of 8. For the same compound, the adverse events (healthy male volunteers; SR 1500 and 2000 mg bid versus placebo) was “headache, dizziness and blocked nose seemed more common on ranolazine”, the “reduction in orthostatic systolic BP” value (healthy male volunteers; day 5, 1500 mg SR bid, 4 hours post-dose) was −9.8 mm Hg and the “reduction in orthostatic systolic BP” value (healthy male volunteers; day 5, 2000 mg SR bid, 6 hours post-dose) was −8.4 mmHg. For the same compound, the “increase in total exercise duration (±SEM) compared with baseline” value (“increase … (±SEM) compared with baseline” for short) ([4]; 30 mg tid) was 0.3 ± 0.2 min, the “increase … (±SEM) compared with baseline” value ([4]; 60 mg tid) was 0.6 ± 0.2 min and the “increase … (±SEM) compared with baseline” value ([4]; 120 mg tid) was 0.5 ± 0.2 min.
